Results from patent publication US8598086B2, “3-halo-(arly)-4-iminotetrahydropicolinates and their use as herbicides” (Dow AgroSciences, LLC., priority 2009, dated 2013).

How the values were obtained:
Format in all cases: in vivo
[1] = tested on: wild oat (Avena fatua); experiment: Post-emergent Test I; conditions: 10 d after treatment, scale 0 (no activity) to 100 (complete plant death)
Description: (§1) Post-emergent Test I: Weed seeds were obtained from commercial suppliers and planted into 5″-round pots containing soilless media mix (Metro-Mix 360®, Sun Gro Horticulture Canada CM Ltd. Vancouver, British Columbia) 8-12 d prior to application and cultured in a greenhouse equipped with supplemental light sources to provide a 16 h photoperiod at 24-29° C. All pots were surface irrigated. Compounds were dissolved in a 97:3 v/v (volume per volume) mixture of acetone and dimethyl sulfoxide (DMSO) and diluted to the appropriate concentration in a final application solution containing water, acetone, isopropyl alcohol, DMSO and Agri-dex (crop oil concentrate) in a 59:23:15:1.0:1.5 v/v ratio and 0.02% w/v (weight per volume) of Triton X-155 to obtain the spray solution containing the highest application rate. The high application rate was serial diluted with the above application solution to provide delivery of the compound at rates 1/2×, 1/4× and 1/8× of the highest rate (equivalent to 4.0, 2.0, 1.0, and 0.5 kg/ha, respectively). Formulated compound (2.7 mL) was applied using a DeVilbiss® compressed air sprayer at 2-4 pounds per square inch (psi) […]. Following treatment, pots were allowed to dry before being returned to the greenhouse for the duration of the experiment and subirrigated as needed. All pots were fertilized one time per week by subirrigating with Peters Peat-Lite Special® fertilizer (20-10-20). Phytotoxicity ratings were obtained 10 d after treatment. All evaluations were made on a scale of 0 to 100 where 0 represents no activity and 100 represents complete plant death.

[2] = tested on: ivyleaf morningglory (Ipomoea hederacea); experiment: Post-emergent Test I; conditions: 10 d after treatment, scale 0 (no activity) to 100 (complete plant death)
Description: as §1

[3] = tested on: giant foxtail (Setaria faberi); experiment: Post-emergent Test I; conditions: 10 d after treatment, scale 0 (no activity) to 100 (complete plant death)
Description: as §1

[4] = tested on: sunflower (Helianthus annuus); experiment: Post-emergent Test I; conditions: 10 d after treatment, scale 0 (no activity) to 100 (complete plant death)
Description: as §1

[5] = tested on: wild oat (Avena fatua); experiment: Pre-emergent Test I; conditions: 14 d after treatment, scale 0 (no herbicidal effect) to 100 (plant death or lack of emergence)
Description: (§2) Pre-emergent Test I: Weed seeds were obtained from commercial suppliers and planted into round plastic pots (5-inch diameter) containing silt loam soil (23% sand, 52% silt, 29% clay, 2.9% organic matter, CEC 16.6, pH 7.2). After planting, all pots were subirrigated 16 h prior to compound application. Compounds were dissolved in a 97:3 v/v mixture of acetone and DMSO and diluted to the appropriate concentration in a final application solution containing water, acetone, isopropyl alcohol, DMSO and Agri-dex (crop oil concentrate) in a 59:23:15:1.0:1.5 v/v ratio and 0.02% w/v of Triton X-155 to obtain the spray solution containing the highest application rate. The high application rate was serial diluted with the above application solution to provide delivery of the compound at rates 1/2×, 1/4× and 1/8× of the highest rate (equivalent to 4.0, 2.0, 1.0, and 0.5 kg/ha, respectively). Formulated compound (2.7 mL) was pipetted evenly over the soil surface followed by incorporation with water (15 mL). Following treatment, pots were returned to the greenhouse for the duration of the experiment. The greenhouse was programmed for an approximate 15 h photoperiod which was maintained at about 23-29° C. during the day and 22-28° C. during the night. Nutrients and water were added on a regular basis through surface irrigation and supplemental lighting was provided with overhead metal halide 1000-Watt lamps as necessary. Herbicidal effect ratings were obtained 14 d after treatment. All evaluations were made relative to appropriate controls on a scale of 0 to 100 where 0 represents no herbicidal effect and 100 represents plant death or lack of emergence from the soil.

[6] = tested on: ivyleaf morningglory (Ipomoea hederacea); experiment: Pre-emergent Test I; conditions: 14 d after treatment, scale 0 (no herbicidal effect) to 100 (plant death or lack of emergence)
Description: as §2

[7] = tested on: pigweed (Amaranthus retroflexus); experiment: Pre-emergent Test I; conditions: 14 d after treatment, scale 0 (no herbicidal effect) to 100 (plant death or lack of emergence)
Description: as §2

[8] = tested on: giant foxtail (Setaria faberi); experiment: Pre-emergent Test I; conditions: 14 d after treatment, scale 0 (no herbicidal effect) to 100 (plant death or lack of emergence)
Description: as §2

[9] = tested on: sunflower (Helianthus annuus); experiment: Pre-emergent Test I; conditions: 14 d after treatment, scale 0 (no herbicidal effect) to 100 (plant death or lack of emergence)
Description: as §2

[10] = tested on: pigweed (Amaranthus retroflexus); experiment: Post-emergent Test I; conditions: 10 d after treatment, scale 0 (no activity) to 100 (complete plant death)
Description: as §1

[11] = tested on: barnyardgrass (Echinochloa crus-galli); experiment: Post-emergent Test II; conditions: after 14 d, 0 = no injury, 100 = complete kill
Description: (§3) Post-emergent Test II: Seeds or nutlets of the desired test plant species were planted in Sun Gro Metro-Mix® 360 planting mixture, which typically has a pH of 6.0 to 6.8 and an organic matter content of about 30 percent, in plastic pots with a surface area of 64 square centimeters. When required to ensure good germination and healthy plants, a fungicide treatment and/or other chemical or physical treatment was applied. The plants were grown for 7-21 d in a greenhouse with an approximate 15 h photoperiod which was maintained at about 23-29° C. during the day and 22-28° C. during the night. Nutrients and water were added on a regular basis and supplemental lighting was provided with overhead metal halide 1000-Watt lamps as necessary. The plants were employed for testing when they reached the first or second true leaf stage.
(§4) A weighed amount, determined by the highest rate to be tested, of each test compound was placed in a 25 mL glass vial and was dissolved in 4 mL of a 97:3 v/v mixture of acetone and DMSO to obtain concentrated stock solutions. […] The concentrated stock solutions obtained were diluted with 20 mL of an aqueous mixture containing acetone, water, isopropyl alcohol, DMSO, Atplus 411F crop oil concentrate, and Triton® X-155 surfactant in a 48.5:39:10:1.5:1.0:0.02 v/v ratio to obtain spray solutions containing the highest application rates. Additional application rates were obtained by serial dilution of 12 mL of the high rate solution into a solution containing 2 mL of 97:3 v/v mixture of acetone and DMSO and 10 mL of an aqueous mixture containing acetone, water, isopropyl alcohol, DMSO, Atplus 411F crop oil concentrate, and Triton X-155 surfactant in a 48.5:39:10:1.5:1.0:0.02 v/v ratio to obtain 1/2×, 1/4×, 1/8× and 1/16× rates of the high rate. Compound requirements are based upon a 12 mL application volume at a rate of 187 liters per hectare (L/ha). Formulated compounds were applied to the plant material with an overhead Mandel track sprayer equipped with 8002E nozzles calibrated to deliver 187 L/ha over an application area of 0.503 square meters at a spray height of 18 inches (43 cm) above the average plant canopy height. Control plants were sprayed in the same manner with the solvent blank.
(§5) The treated plants and control plants were placed in a greenhouse as described above and watered by subirrigation to prevent wash-off of the test compounds. After 14 d, the condition of the test plants as compared with that of the untreated plants was determined visually and scored on a scale of 0 to 100 percent where 0 corresponds to no injury and 100 corresponds to complete kill.

[12] = tested on: lambsquarters (Chenopodium album); experiment: Post-emergent Test II; conditions: after 14 d, 0 = no injury, 100 = complete kill
Description: as §3, §4, §5

[13] = tested on: velvetleaf (Abutilon theophrasti); experiment: Post-emergent Test II; conditions: after 14 d, 0 = no injury, 100 = complete kill
Description: as §3, §4, §5

[14] = tested on: bindweed (Polygonum convolvulus); experiment: Post-emergent Test II; conditions: after 14 d, 0 = no injury, 100 = complete kill
Description: as §3, §4, §5

[15] = tested on: rice (Oryza sativa); experiment: Post-emergent Test II; conditions: after 14 d, 0 = no injury, 100 = complete kill
Description: as §3, §4, §5

CCOC(=O)C1=C(Cl)/C(=N/OS(C)(=O)=O)CC(c2ccc(Cl)cc2F)N1 (stereo not drawn) [Compound 26, 3-chloro-6-(4-chloro-2-fluorophenyl)-4-[(E)-methanesulfonyloximino]-1,4,5,6-tetrahydropyridine-2-carboxylic acid ethyl ester]
Phytotoxicity rating AVEFA ([1]; 3760 g ai/ha): 95
Phytotoxicity rating IPOHE ([2]; 3760 g ai/ha): 100
Phytotoxicity rating SETFA ([3]; 3760 g ai/ha): 100
Phytotoxicity rating HELAN ([4]; 3760 g ai/ha): 100
Herbicidal effect rating AVEFA ([5]; 3760 g ai/ha): 10
Herbicidal effect rating IPOHE ([6]; 3760 g ai/ha): 100
Herbicidal effect rating AMARE ([7]; 3760 g ai/ha): 100
Herbicidal effect rating SETFA ([8]; 3760 g ai/ha): 70
Herbicidal effect rating HELAN ([9]; 3760 g ai/ha): 70

COC(=O)C1=C(Cl)/C(=N/OS(C)(=O)=O)CC(c2ccc(Cl)cc2)N1 (stereo not drawn) [Compound 27, 3-Chloro-6-(4-chlorophenyl)-4-[(E)-methanesulfonyloximino]-1,4,5,6-tetrahydropyridine-2-carboxylic acid methyl ester]
Phytotoxicity rating AVEFA ([1]; 3960 g ai/ha): 75
Phytotoxicity rating IPOHE ([2]; 3960 g ai/ha): 85
Phytotoxicity rating AMARE ([10]; 3960 g ai/ha): 100
Phytotoxicity rating SETFA ([3]; 3960 g ai/ha): 90
Phytotoxicity rating HELAN ([4]; 3960 g ai/ha): 95
Herbicidal effect rating AVEFA ([5]; 3960 g ai/ha): 20
Herbicidal effect rating IPOHE ([6]; 3960 g ai/ha): 100
Herbicidal effect rating AMARE ([7]; 3960 g ai/ha): 100
Herbicidal effect rating SETFA ([8]; 3960 g ai/ha): 100
Herbicidal effect rating HELAN ([9]; 3960 g ai/ha): 100

COC(=O)C1=C(Cl)/C(=N/OS(C)(=O)=O)CC(c2ccc(Cl)c(OC)c2F)N1 (stereo not drawn) [Compound 29, 3-Chloro-6-(4-chloro-2-fluoro-3-methoxyphenyl)-4-[(E)-methanesulfonyloximino]-1,4,5,6-tetrahydropyridine-2-carboxylic acid methyl ester]
Visual injury score ECHCG ([11]; 140 g ai/ha): 100%
Visual injury score CHEAL ([12]; 140 g ai/ha): 100%
Visual injury score ABUTH ([13]; 140 g ai/ha): 100%
Visual injury score POLCO ([14]; 140 g ai/ha): 90%
Visual injury score ORYSA ([15]; 140 g ai/ha): 0%
Phytotoxicity rating AVEFA ([1]; 4000 g ai/ha): 30
Phytotoxicity rating IPOHE ([2]; 4000 g ai/ha): 95
Phytotoxicity rating AMARE ([10]; 4000 g ai/ha): 100
Phytotoxicity rating SETFA ([3]; 4000 g ai/ha): 90
Phytotoxicity rating HELAN ([4]; 4000 g ai/ha): 90
Herbicidal effect rating AVEFA ([5]; 4000 g ai/ha): 30
Herbicidal effect rating IPOHE ([6]; 4000 g ai/ha): 95
Herbicidal effect rating AMARE ([7]; 4000 g ai/ha): 100
Herbicidal effect rating SETFA ([8]; 4000 g ai/ha): 60
Herbicidal effect rating HELAN ([9]; 4000 g ai/ha): 80

CCOC(=O)C1=C(Cl)/C(=N/OS(C)(=O)=O)CC(c2ccc(Cl)c(OC)c2F)N1 (stereo not drawn) [Compound 30, 3-Chloro-6-(4-chloro-2-fluoro-3-methoxyphenyl)-4-[(E)-methanesulfonyloximino]-1,4,5,6-tetrahydropyridine-2-carboxylic acid ethyl ester]
Phytotoxicity rating AVEFA ([1]; 3400 g ai/ha): 30
Phytotoxicity rating IPOHE ([2]; 3400 g ai/ha): 95
Phytotoxicity rating AMARE ([10]; 3400 g ai/ha): 100
Phytotoxicity rating SETFA ([3]; 3400 g ai/ha): 85
Phytotoxicity rating HELAN ([4]; 3400 g ai/ha): 90
Herbicidal effect rating AVEFA ([5]; 3400 g ai/ha): 95
Herbicidal effect rating IPOHE ([6]; 3400 g ai/ha): 100
Herbicidal effect rating AMARE ([7]; 3400 g ai/ha): 100
Herbicidal effect rating SETFA ([8]; 3400 g ai/ha): 100
Herbicidal effect rating HELAN ([9]; 3400 g ai/ha): 100

COC(=O)C1=C(Cl)/C(=N/OS(=O)(=O)c2ccc(C)cc2)CC(c2ccc(Cl)c(OC)c2F)N1 (stereo not drawn) [Compound 31, 3-Chloro-6-(4-chloro-2-fluoro-3-methoxyphenyl)-4-[(E)-p-toluenesulfonyloximino]-1,4,5,6-tetrahydropyridine-2-carboxylic acid methyl ester]
Phytotoxicity rating AVEFA ([1]; 4000 g ai/ha): 40
Phytotoxicity rating IPOHE ([2]; 4000 g ai/ha): 90
Phytotoxicity rating SETFA ([3]; 4000 g ai/ha): 80
Phytotoxicity rating HELAN ([4]; 4000 g ai/ha): 90
Herbicidal effect rating AVEFA ([5]; 4000 g ai/ha): 10
Herbicidal effect rating IPOHE ([6]; 4000 g ai/ha): 100
Herbicidal effect rating AMARE ([7]; 4000 g ai/ha): 100
Herbicidal effect rating SETFA ([8]; 4000 g ai/ha): 10
Herbicidal effect rating HELAN ([9]; 4000 g ai/ha): 100

COC(=O)C1=C(Br)/C(=N/OS(C)(=O)=O)CC(c2ccc(Cl)c(OC)c2F)N1 (stereo not drawn) [Compound 32, 3-bromo-6-(4-chloro-2-fluoro-3-methoxyphenyl)-4-[(E)-methanesulfonyloximino]-1,4,5,6-tetrahydropyridine-2-carboxylic acid methyl ester]
Visual injury score ECHCG ([11]; 140 g ai/ha): 90%
Visual injury score CHEAL ([12]; 140 g ai/ha): 100%
Visual injury score ABUTH ([13]; 140 g ai/ha): 100%
Visual injury score POLCO ([14]; 140 g ai/ha): 90%
Visual injury score ORYSA ([15]; 140 g ai/ha): 15%

COC(=O)C1=C(Cl)/C(=N/OC(C)=O)CC(c2ccc(Cl)c(OC)c2F)N1 (stereo not drawn) [Compound 35, 3-chloro-6-(4-chloro-2-fluoro-3-methoxyphenyl)-4-[(E)-acetoxyoximino]-3-chloro-1,4,5,6-tetrahydropyridine-2-carboxylic acid methyl ester]
Visual injury score ECHCG ([11]; 70 g ai/ha): 90%
Visual injury score CHEAL ([12]; 70 g ai/ha): 100%
Visual injury score ABUTH ([13]; 70 g ai/ha): 100%
Visual injury score POLCO ([14]; 70 g ai/ha): 100%
Visual injury score ORYSA ([15]; 70 g ai/ha): 0%
